Experimental data taken from publication PMC7730438, “Generation of KS-58 as the first K-Ras(G12D)-inhibitory peptide presenting anti-cancer activity in vivo” (Scientific Reports, 2020).
Values joined by “and” are separate entries in the source; they are usually repeats but may differ in a detail not shown here. Equal entries are not always repeated. One block for each molecule: values may come before it. Starred links: 1 amine or outer side, 2 acyl side, 3 side chain; linkers in the order of their positions; H or OH if unused. Positions of bridges follow the written chain, without caps; N, C: chain ends. Non-standard residues stand in square brackets, D forms with d. Residues, ends and D or L forms follow the SMILES beside them. Groups on a side chain read outwards from the residue. *: point of attachment. Biotin = O=C1N[C@H]2[C@H](CS[C@H]2CCCCC(=O)*)N1; Phe(4-F) = N[C@@H](Cc1ccc(F)cc1)C(=O)O; X1 = CCCCCCC[C@H](N[*:1])C(=O)[*:2]; Nle = CCCC[C@H](N)C(=O)O; X2 = C(C[*:1])C[*:2]; Ahx = NCCCCCC(=O)O; βAla = NCCC(=O)O

Experiments:
[1] = target: T1, recombinant K-Ras(G12D) protein (Homo sapiens, UniProt P01116, G12D); experiment: Cell-free ELISA binding of biotin-labeled peptides; conditions: Fig. 4A
T1 construct: purchased Abcam ab268712
Procedure: (§2) Ras protein was directly coated to wells of Nunc MaxiSorp microplate in PBS containing 0.01 mM GDP and 10 mM MgCl2 overnight at 4 °C. The wells were blocked in PBS containing 0.1% bovine serum albumin (BSA) for 0.5 h at 25 °C.
For binding assays of biotin-labeled peptides, Ras protein (25 μg/mL) was coated to wells of Nunc MaxiSorp 96-well clear plate (439,454) as described above. After washing the wells three times using PBS containing 0.1% Tween20 (PBST), biotin-labeled peptides in PBS containing 0.025% BSA, 0.01 mM GDP, and 10 mM MgCl2 were added to the wells. After 0.5 h incubation at 25 °C, the wells were washed with PBST three times. Bound biotin-labeled peptides were detected using horseradish peroxidase (HRP)-conjugated streptavidin (SA) (ab7403, Abcam) and 1-Step Ultra TMB-ELISA Substrate Solution (34028, Thermo Fisher Scientific). The amounts of HRP in the wells were measured by absorbance to 450 nm.

[2] = tested on: PANC-1 xenografts (pancreas weight); experiment: Combination administration test of KS-58 and gemcitabine; format: in vivo, mice; conditions: gemcitabine alone, 40 mg/kg intraperitoneally once every 4 days for 4 weeks
Procedure: To establish orthotropic xenograft tumor models, 2.5 × 10^6 cells/50 µL of PANC-1 cells were injected into the pancreas of BALB/cAJcl-nu/nu male mice (8 weeks old; CLEA Japan, Inc.). KS-58 was dissolved in DMSO and then tenfold diluted by saline. The peptide solution was then injected intravenously to the mice bearing tumors once every 2 days for 4 weeks (40 mg/kg, n = 7). Organ weights of the pancreas, liver, and kidney were measured. In combination administration test, gemcitabine hydrochloride solution (Nipponkayaku) was tenfold diluted by saline and then injected intraperitoneally to the mice bearing tumors once every 4 days for 4 weeks (40 mg/kg, n = 10), and peptide solution prepared as a same manner described above was injected intravenously to the mice bearing tumors once every 2 days for 4 weeks (10, 20, or 40 mg/kg, n = 10). Organ weights of the pancreas were measured.

[3] = target: Recombinant human K-Ras(G12D) (human) (UniProt P01116)
[4] = target: SmBiT-fused K-Ras(G12D) (human) (UniProt P01116); experiment: split reporter (BiFC, NanoBiT); NanoBiT in transfected HEK293T cells; peptides (30 µM) added to the cells for 2 h; remaining K-Ras(G12D)-SOS1 or K-Ras(G12D)-BRAF luminescence in % of no peptide
A427 cells = experiment: Cell proliferation assay (CellTiter-Glo, 72 h); format: cell-based, human; conditions: A427 (G12D), peptide 30 µM, n = 4, ± SEM
Procedure: A427 (ATCC HTB-53), A549 (ATCC CCL-185), H1975 (ATCC CRL-5908), PANC-1 (ATCC CRL-1469), MIA PaCa-2 (ATCC CRL-1420), and Capan-1 (ATCC HTB-79) cells were purchased from ATCC, and each cell was cultured in medium supplemented with 10% fetal bovine serum (FBS), according to the protocol recommended by the manufacture.
The effect of peptides on cell proliferation of A427, A549, H1975, PANC-1, MIA PaCa-2, and Capan-1 cells was determined by 72 h exposure to peptides. Cells were seeded at 1000 cells/well in 96-well tissue culture plates in each growth media and allowed to adhere overnight on day 0. Peptides were solved in DMSO and then diluted with each growth media for a constant final DMSO concentration of 0.5%. Media in the wells were removed and replaced with diluted peptide solutions, and cells were incubated for 3 days. During the incubation, medium containing the peptides was replaced every day. Relative cell numbers were estimated using CellTiter-Glo assay kit (G7570, Promega, WI, USA) according to the manufacturer’s instructions. Luminescence was detected using SpectraMax i3x (MOLECULAR DEVICES, CA, USA). Cell proliferation rate (%) was calculated based on cell numbers at day 0 as 0% and at day 3 without peptide treatment as 100%.

[5] = target: T2, K-Ras(G12D)^GDP–SOS1 interaction (Homo sapiens, UniProt P01116, G12D); experiment: Intracellular PPI inhibition assay using NanoBiT in HEK293T cells; format: cell-based; conditions: peptide 30 µM, n = 4
T2 construct: host or cells: HEK293T
Procedure: (§1) Intracellular protein–protein interaction (PPI) inhibition assays were carried out using the NanoBiT system (Promega). Three kinds of plasmids with CMV promoters, which encodes human K-Ras(G12D) fusing SmBiT to the N-terminus, encodes human SOS1 fusing LgBiT to the C-terminus, and encodes human BRAF fusing LgBiT to the C-terminus, were prepared by Promega. Each combination of plasmids was transfected to HEK293T cells by FuGENE HD Reagent (E2312, […]). After 30 h incubation at 37 °C under 5% CO2, the cells were recovered, and seeded to 96-well tissue culture white plate with 10% FBS containing DMEM, and incubated overnight. Peptides were added to the plate and incubated for another 2 h. Nano-Glo (Promega, N2011) was directly added to the plate, and luminescence was immediately monitored. Intracellular K-Ras(G12D)^GDP–SOS1 and K-Ras(G12D)^GTP–BRAF interactions (%) were calculated based on no peptide treatment as 100% and only transfection of plasmid encoding LgBiT fusion protein as 0%.

[6] = target: T3, K-Ras(G12D)^GTP–BRAF interaction (Homo sapiens, UniProt P01116, G12D); experiment: as above; format: cell-based; conditions: peptide 30 µM, n = 4
T3 construct: host or cells: HEK293T
Procedure: as §1

[7] = target: T1, recombinant K-Ras(G12D) protein; experiment: Competition binding assay (ELISA) against Biotin-KRpep-2d; conditions: competitive inhibition of Biotin-KRpep-2d (100 nM) binding; n = 4, ± SEM
Procedure: as §2
For competition binding assays, Ras protein (250 ng/mL) was coated to wells of Nunc MaxiSorp 96-well clear plate (439454) as described above. […] The amounts of HRP in the wells were measured by absorbance at 450 nm.

Binding activity to K-Ras(G12D) protein in ELISA (in words) [1]: peptide concentration-dependent binding
Molecule: CCCCCCC[C@@H]1NC(=O)[C@@H]2CSCCCSC[C@@H](NC(=O)[C@H](Cc3c[nH]c4ccccc34)NC(=O)[C@H](CCCCNC(=O)CCCCCNC(=O)CCCC[C@@H]3SC[C@@H]4NC(=O)N[C@@H]43)NC(=O)[C@H](CC(=O)O)NC(=O)[C@H](Cc3ccc(F)cc3)NC(=O)[C@H](CO)NC1=O)C(=O)NCCC(=O)N1CCC[C@H]1C(=O)N[C@@H](CCCC)C(=O)N2 [Biotin-KS-58, c[βAla-Pro-Nle-c(Cys-Anon-Ser-4fF-Asp-Lys(εN-biotin)-Trp-^DCys)]] (cyclo([βAla]P[Nle]C[X1]S[Phe(4-F)]DK([Ahx-Biotin])W[dC]); linker 4-11 via X2)

Molecule: Nc1ccn([C@@H]2O[C@H](CO)[C@@H](O)C2(F)F)c(=O)n1 [Gemcitabine, gemcitabine]
cell growth of PANC-1 (pancreas weight; Sham = 0%, vehicle = 100%) [2]: 66%

cell proliferation (%) of A427 cells (K-Ras G12D) at 30 µM peptide, 72 h, CellTiter-Glo [3]: 21.1%
cell proliferation (%) of PANC-1 cells (K-Ras G12D) at 30 µM peptide, 72 h, CellTiter-Glo [3]: 50.1%
pERK (%) in A427 cells (K-Ras G12D) at 30 µM peptide [3]: 26%
pERK (%) in PANC-1 cells (K-Ras G12D) at 30 µM peptide [3]: 57.6%
percent of K-Ras(G12D)-BRAF NanoBiT luminescence left at 30 µM peptide [4]: 53.8%
percent of K-Ras(G12D)-SOS1 NanoBiT luminescence left at 30 µM peptide [4]: 35.5%
Molecule: KS-58 (peptide)

Intracellular K-Ras(G12D)^GDP–SOS1 interaction (luminescence, %) [5]: weaker inhibition activity than KS-58
Intracellular K-Ras(G12D)^GTP–BRAF interaction (luminescence, %) [6]: weaker inhibition activity than KS-58
Molecule: c(βAla-Pro-Nle-Cys-Anon-Ser-4fF-Asp-Pro-Trp-^DCys) [KS-58(monocyclic)]
Cell proliferation (%) (A427 cells): 87.1 ± 1.4%

K-Ras(G12D)-binding activity, fold-value compared to the parental KRpep-2d set as 1.0 [7]: about 30 Fold
Molecule: c[Arg-Arg-Arg-Arg-c(Dap-Pro-Nle-Trp-Anon-Dap-Cha-Asp-Pro-Trp-Asp)-Arg-Arg-Arg-Arg] [KS-36]
Cell proliferation (%) (A427 cells): 33.1% and 33.1 ± 9.6%
